Data reported in patent US20230151025A1, “SUBSTITUTED THIAZOLOPYRIDINES, SALTS THEREOF AND THEIR USE AS HERBICIDALLY ACTIVE SUBSTANCES” (Bayer Aktiengesellschaft, priority 2020, published 2023).

Columns and labels:
Format in all cases: in vivo
[1] = system: Echinochloa crus-galli (ECHCG); assay: Herbicidal post-emergence action (D), 320 g/ha; details: ca. 3 weeks
Outline: (§1)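 Post-emergence greenhouse test. Sandy loam; spray at single-leaf stage (2–3 wk after sowing); WP or EC in water + 0.5% additive, 600 l/ha. Visual rating ~3 wk post-spray, % effect vs untreated (0 = control, 100 = dead).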

Setaria viridis (SETVI) [2] = assay: Herbicidal post-emergence action (D), 320 g/ha; details: ca. 3 weeks
Outline: as §1

[3] = system: Polygonum convolvulus (POLCO); assay: Herbicidal post-emergence action (D), 320 g/ha; details: ca. 3 weeks
Outline: as §1

[4] = system: Amaranthus retroflexus (AMARE); assay: Herbicidal post-emergence action (D), 320 g/ha; details: ca. 3 weeks
Outline: as §1

[5] = system: Alopecurus myosuroides (ALOMY); assay: Herbicidal post-emergence action (D), 320 g/ha; details: ca. 3 weeks
Outline: as §1

Avena fatua = assay: Herbicidal pre-emergence action (C), 320 g/ha; details: ca. 3 weeks
Description: (§2) Seeds of mono- and dicotyledonous weed plants and crop plants were sown, in plastic or organic planting pots, in sandy loam and covered with soil. The compounds according to the invention, formulated in the form of wettable powders (WP) or as emulsifiable concentrates (EC), were applied to the surface of the covering soil as aqueous suspension or emulsion, with the addition of 0.5% of an additive, at an application rate of 600 l of water/ha (converted).
(§3) Following treatment, the pots were placed in a greenhouse and kept under optimum growth conditions for the test plants. The visual grading of the damage to the test plants was carried out after ca. 3 weeks in comparison to untreated controls (herbicidal effect in percent (%): 100% effect=plants have died off, 0% effect=as control plants).
(§4) Tables C1 to C13 below show the effects of selected compounds of the general formula (I) according to table 1 on various harmful plants and an application rate corresponding to 320 g/ha obtained by the experimental procedure mentioned above.

[6] = system: Echinochloa crus-galli (ECHCG); assay: Herbicidal pre-emergence action (C), 320 g/ha; details: ca. 3 weeks
Outline: (§5)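 Visual percent damage relative to untreated controls was scored about 3 weeks after treatment, where 100% means plants died off and 0% means like controls. Compounds, as WP or EC with 0.5% additive, were applied in 600 l water/ha to the soil covering sown seeds.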

Setaria viridis (SETVI) [7] = assay: Herbicidal pre-emergence action (C), 320 g/ha; details: ca. 3 weeks
Outline: as §5

[8] = system: Polygonum convolvulus (POLCO); assay: Herbicidal pre-emergence action (C), 320 g/ha; details: ca. 3 weeks
Outline: as §5

[9] = system: Matricaria inodora (MATIN); assay: Herbicidal pre-emergence action (C), 320 g/ha; details: ca. 3 weeks
Outline: as §5

Lolium rigidum (LOLRI) [10] = assay: Herbicidal pre-emergence action (C), 320 g/ha; details: ca. 3 weeks
Outline: as §5

[11] = system: Abutilon theophrasti (ABUTH); assay: Herbicidal pre-emergence action (C), 320 g/ha; details: ca. 3 weeks
Outline: as §5

Veronica persica (VERPE) [12] = assay: Herbicidal pre-emergence action (C), 320 g/ha; details: ca. 3 weeks
Outline: as §5

[13] = system: Amaranthus retroflexus (AMARE); assay: Herbicidal pre-emergence action (C), 320 g/ha; details: ca. 3 weeks
Outline: as §5

[14] = system: Alopecurus myosuroides (ALOMY); assay: Herbicidal pre-emergence action (C), 320 g/ha; details: ca. 3 weeks
Outline: as §5

[15] = system: Echinochloa crus-galli (ECHCG); assay: Herbicidal post-emergence action (B), 1280 g/ha; details: rated visually after about 3 weeks vs untreated controls
Outline: (§6)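 Percent activity is a visual score taken about 3 weeks after treatment, relative to untreated plants, where 100% means the plants died and 0% means no difference from controls. Plants were sprayed on green parts at the one-leaf stage with an aqueous suspension or emulsion containing 0.5% additive at 600 L/ha.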

Poa annua (POAAN) [16] = assay: Herbicidal post-emergence action (B), 1280 g/ha; details: rated visually after about 3 weeks vs untreated controls
Outline: as §6

Stellaria media (STEME) [17] = assay: Herbicidal post-emergence action (B), 1280 g/ha
Outline: as §6

[18] = system: Kochia scoparia (KCHSC; Bassia scoparia); assay: Herbicidal post-emergence action (B), 1280 g/ha
Outline: as §6

[19] = system: Abutilon theophrasti (ABUTH); assay: Herbicidal post-emergence action (B), 1280 g/ha; details: rated visually after about 3 weeks vs untreated controls
Outline: as §6

Veronica persica (VERPE) [20] = assay: Herbicidal post-emergence action (B), 1280 g/ha
Outline: as §6

[21] = system: Amaranthus retroflexus (AMARE); assay: Herbicidal post-emergence action (B), 1280 g/ha; details: rated visually after about 3 weeks vs untreated controls
Outline: as §6

[22] = system: Echinochloa crus-galli (ECHCG); assay: Herbicidal pre-emergence action (A), 1280 g/ha; details: visual grading after ca. 3 weeks vs untreated controls, 100% = plants have died off, 0% = as control plants
Outline: (§7)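 Pre-emergence soil-surface spray, 600 l/ha water, 0.5% additive, WP or EC formulation. Sandy loam, double sowing per pot, greenhouse under optimum growth. Visual % damage at ~3 wk vs untreated; 100% = plants died off.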

Setaria viridis (SETVI) [23] = assay: Herbicidal pre-emergence action (A), 1280 g/ha; details: visual grading after ca. 3 weeks vs untreated controls
Outline: as §7

Poa annua (POAAN) [24] = assay: Herbicidal pre-emergence action (A), 1280 g/ha; details: visual grading after ca. 3 weeks vs untreated controls, 100% = plants have died off, 0% = as control plants
Outline: as §7

Stellaria media (STEME) [25] = assay: Herbicidal pre-emergence action (A), 1280 g/ha; details: visual grading after ca. 3 weeks vs untreated controls
Outline: as §7

[26] = system: Matricaria inodora (MATIN); assay: Herbicidal pre-emergence action (A), 1280 g/ha; details: visual grading after ca. 3 weeks vs untreated controls
Outline: as §7

Lolium rigidum (LOLRI) [27] = assay: Herbicidal pre-emergence action (A), 1280 g/ha; details: visual grading after ca. 3 weeks vs untreated controls, 100% = plants have died off, 0% = as control plants
Outline: as §7

[28] = system: Kochia scoparia (KCHSC; Bassia scoparia); assay: Herbicidal pre-emergence action (A), 1280 g/ha; details: visual grading after ca. 3 weeks vs untreated controls
Outline: as §7

Veronica persica (VERPE) [29] = assay: Herbicidal pre-emergence action (A), 1280 g/ha; details: visual grading after ca. 3 weeks vs untreated controls
Outline: as §7

[30] = system: Amaranthus retroflexus (AMARE); assay: Herbicidal pre-emergence action (A), 1280 g/ha; details: visual grading after ca. 3 weeks vs untreated controls
Outline: as §7

[31] = system: Alopecurus myosuroides (ALOMY); assay: Herbicidal pre-emergence action (A), 1280 g/ha; details: visual grading after ca. 3 weeks vs untreated controls, 100% = plants have died off, 0% = as control plants
Outline: as §7

Veronica persica (VERPE) [32] = assay: Herbicidal post-emergence action (D), 320 g/ha; details: ca. 3 weeks
Outline: as §1

Lolium rigidum (LOLRI) [33] = assay: Herbicidal post-emergence action (B), 1280 g/ha; details: one-leaf stage, rated after about 3 weeks vs untreated controls, 100% activity = the plants have died, 0% = like control plants
Outline: as §6

[34] = system: Alopecurus myosuroides (ALOMY); assay: Herbicidal post-emergence action (B), 1280 g/ha; details: rated visually after about 3 weeks vs untreated controls
Outline: as §6

[35] = system: Digitaria sanguinalis (DIGSA); assay: Herbicidal pre-emergence action (A), 1280 g/ha; details: visual grading after ca. 3 weeks vs untreated controls, 100% = plants have died off, 0% = as control plants
Outline: as §7

[36] = system: Abutilon theophrasti (ABUTH); assay: Herbicidal pre-emergence action (A), 1280 g/ha; details: visual grading after ca. 3 weeks vs untreated controls, 100% = plants have died off, 0% = as control plants
Outline: as §7

Viola tricolor (VIOTR) = assay: Herbicidal pre-emergence action (C), 320 g/ha; details: ca. 3 weeks
Outline: as §5

[37] = system: Digitaria sanguinalis (DIGSA); assay: Herbicidal pre-emergence action (C), 320 g/ha; details: ca. 3 weeks
Description: as §2, §3, §4

Row | Compound | herbicidal effect AMARE [4] | herbicidal effect ALOMY [5] | herbicidal effect ECHCG [6] | herbicidal effect SETVI (Setaria viridis (SETVI) [7]) | herbicidal effect POLCO [8] | herbicidal effect LOLRI (Lolium rigidum (LOLRI) [10]) | herbicidal effect VERPE (Veronica persica (VERPE) [12]) | herbicidal effect AMARE [13] | herbicidal effect ALOMY [14] | herbicidal activity POAAN (Poa annua (POAAN) [16]) | herbicidal effect STEME (Stellaria media (STEME) [17]) | herbicidal effect KCHSC [18] | herbicidal effect VERPE (Veronica persica (VERPE) [20]) | herbicidal activity AMARE [21] | ECHCG, herbicidal effect in percent (%) [22] | herbicidal effect SETVI (Setaria viridis (SETVI) [23]) | POAAN, herbicidal effect in percent (%) (Poa annua (POAAN) [24]) | herbicidal effect STEME (Stellaria media (STEME) [25]) | herbicidal effect MATIN [26] | LOLRI, herbicidal effect in percent (%) (Lolium rigidum (LOLRI) [27]) | further results
1 | Fc1ccccc1-c1nc2ncsc2cc1Br [Example I-012] | 90% | 90% | 100% | 100% | 80% | 100% | 80% | 90% | 100% | – | – | – | – | – | – | – | – | – | – | – | herbicidal effect ECHCG [1]: 80%; herbicidal effect SETVI (Setaria viridis (SETVI) [2]): 90%; herbicidal effect POLCO [3]: 90%; herbicidal effect AVEFA (Avena fatua): 100%; herbicidal effect MATIN [9]: 90%; herbicidal effect ABUTH [11]: 80%
2 | Cc1cscc1-c1nc2ncsc2cc1C [Example I-193] | 80% | 90% | 100% | 100% | 80% | 100% | 80% | 90% | 100% | 100% | 90% | 90% | 90% | 100% | 100% | 100% | 100% | 100% | 90% | 100% | herbicidal effect ECHCG [1]: 80%; herbicidal effect SETVI (Setaria viridis (SETVI) [2]): 80%; herbicidal activity ECHCG [15]: 100%; herbicidal activity ABUTH [19]: 90%; herbicidal effect AVEFA (Avena fatua): 80%; herbicidal effect KCHSC [28]: 90%; herbicidal effect VERPE (Veronica persica (VERPE) [29]): 90%; herbicidal effect AMARE [30]: 90%; ALOMY, herbicidal effect in percent (%) [31]: 90%; herbicidal effect MATIN [9]: 80%; herbicidal effect ABUTH [11]: 80%
3 | Cc1cccc(F)c1-c1nc2ncsc2cc1Cl [Example I-013] | 80% | 80% | 100% | 100% | 80% | 100% | 80% | 90% | 100% | 90% | 100% | 100% | 100% | 100% | 100% | 100% | 100% | 100% | 90% | 100% | herbicidal effect VERPE (Veronica persica (VERPE) [32]): 80%; herbicidal activity ECHCG [15]: 100%; LOLRI, activity rated visually (%) (Lolium rigidum (LOLRI) [33]): 90%; herbicidal activity ALOMY [34]: 100%; DIGSA, herbicidal effect in percent (%) [35]: 100%; herbicidal effect KCHSC [28]: 100%; ABUTH, herbicidal effect in percent (%) [36]: 90%; herbicidal effect VERPE (Veronica persica (VERPE) [29]): 90%; herbicidal effect AMARE [30]: 90%; ALOMY, herbicidal effect in percent (%) [31]: 100%
4 | CC(C)c1cc2scnc2nc1-c1ccccc1F [Example I-184] | 80% | 90% | 100% | 100% | – | 100% | 80% | 90% | 100% | 90% | 90% | 90% | 90% | 100% | 100% | 100% | 100% | 90% | 90% | 100% | herbicidal effect ECHCG [1]: 80%; herbicidal effect SETVI (Setaria viridis (SETVI) [2]): 90%; herbicidal effect POLCO [3]: 80%; herbicidal effect VERPE (Veronica persica (VERPE) [32]): 90%; herbicidal activity ECHCG [15]: 90%; herbicidal effect KCHSC [28]: 90%; herbicidal effect VERPE (Veronica persica (VERPE) [29]): 90%; herbicidal effect AMARE [30]: 90%; ALOMY, herbicidal effect in percent (%) [31]: 90%; herbicidal effect MATIN [9]: 80%; herbicidal effect VIOTR (Viola tricolor (VIOTR)): 80%
5 | Cc1cc2scnc2nc1C12CCCCC1O2 (centres unmarked) [Example I-151] | 80% | 80% | – | 100% | 80% | 90% | 90% | 90% | 100% | 100% | 100% | 100% | 100% | 100% | 100% | 100% | 100% | 100% | 90% | 100% | herbicidal effect VERPE (Veronica persica (VERPE) [32]): 80%; herbicidal activity ALOMY [34]: 100%; herbicidal effect DIGSA [37]: 100%; DIGSA, herbicidal effect in percent (%) [35]: 100%; herbicidal effect KCHSC [28]: 100%; ABUTH, herbicidal effect in percent (%) [36]: 90%; herbicidal effect VERPE (Veronica persica (VERPE) [29]): 90%; herbicidal effect AMARE [30]: 100%; ALOMY, herbicidal effect in percent (%) [31]: 100%
